Measured values published in patent EP0577932A2, “Development of a mechanism-based screen to identify androgen receptor agonists and antagonists” (AMERICAN CYANAMID COMPANY, priority 1992, dated 1994).

Molecular target: T1, mouse androgen receptor (Mus musculus, UniProt P19091)
T1 sequence (P19091 1-899): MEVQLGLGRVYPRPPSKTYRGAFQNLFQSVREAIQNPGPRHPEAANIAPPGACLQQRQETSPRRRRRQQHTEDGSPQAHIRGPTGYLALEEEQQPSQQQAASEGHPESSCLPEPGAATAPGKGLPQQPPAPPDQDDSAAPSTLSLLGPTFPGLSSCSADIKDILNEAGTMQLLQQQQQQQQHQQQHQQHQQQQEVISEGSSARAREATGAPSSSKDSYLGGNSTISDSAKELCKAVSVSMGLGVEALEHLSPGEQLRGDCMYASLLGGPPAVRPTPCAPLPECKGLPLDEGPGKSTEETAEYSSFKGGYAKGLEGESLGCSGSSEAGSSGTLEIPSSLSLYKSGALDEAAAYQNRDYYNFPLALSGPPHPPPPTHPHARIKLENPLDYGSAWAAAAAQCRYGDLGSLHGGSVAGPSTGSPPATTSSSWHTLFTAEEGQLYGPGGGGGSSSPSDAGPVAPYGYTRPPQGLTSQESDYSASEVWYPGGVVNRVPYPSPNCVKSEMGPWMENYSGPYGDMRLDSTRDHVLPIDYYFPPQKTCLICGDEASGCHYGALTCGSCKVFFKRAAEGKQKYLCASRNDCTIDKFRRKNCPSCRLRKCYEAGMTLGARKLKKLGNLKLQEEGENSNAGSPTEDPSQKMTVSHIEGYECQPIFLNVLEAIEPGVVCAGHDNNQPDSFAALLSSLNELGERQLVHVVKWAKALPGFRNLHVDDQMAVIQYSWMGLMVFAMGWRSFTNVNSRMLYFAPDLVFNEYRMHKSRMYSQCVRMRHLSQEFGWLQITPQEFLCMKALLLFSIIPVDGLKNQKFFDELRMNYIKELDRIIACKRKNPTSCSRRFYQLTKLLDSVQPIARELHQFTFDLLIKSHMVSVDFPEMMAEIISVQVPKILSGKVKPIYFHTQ
Conditions: compete for binding sites only at high concentrations
Description: Bound and free steroids are separated by dextran-coated charcoal (0.5% Norit A and 0.05% dextran). Specific binding is determined by subtracting non-specific from total binding.

CC(C)(O)C(=O)Nc1ccc([N+](=O)[O-])c(C(F)(F)F)c1 [hyroxyl-flutamide]
affinity for the androgen receptor (in words): lower affinity
